From US7732603B2, “Organic compounds as agents for the treatment of aldosterone mediated conditions” (Novartis AG, priority 2002, dated 2010) come the findings set out here.

The first data set concerns the target T1, aldosterone synthase (Rattus norvegicus, UniProt P30099).
T1 construct: The adrenals are decapsulated to obtain the glomerulosa tissue; The tissue is homogenized in a glass homogenizer; from tissue; host or cells: rat adrenal glomerulosa tissue homogenate (900 x g supernatant), sodium-depleted Sprague-Dawley rats
T1 sequence (P30099 35-510): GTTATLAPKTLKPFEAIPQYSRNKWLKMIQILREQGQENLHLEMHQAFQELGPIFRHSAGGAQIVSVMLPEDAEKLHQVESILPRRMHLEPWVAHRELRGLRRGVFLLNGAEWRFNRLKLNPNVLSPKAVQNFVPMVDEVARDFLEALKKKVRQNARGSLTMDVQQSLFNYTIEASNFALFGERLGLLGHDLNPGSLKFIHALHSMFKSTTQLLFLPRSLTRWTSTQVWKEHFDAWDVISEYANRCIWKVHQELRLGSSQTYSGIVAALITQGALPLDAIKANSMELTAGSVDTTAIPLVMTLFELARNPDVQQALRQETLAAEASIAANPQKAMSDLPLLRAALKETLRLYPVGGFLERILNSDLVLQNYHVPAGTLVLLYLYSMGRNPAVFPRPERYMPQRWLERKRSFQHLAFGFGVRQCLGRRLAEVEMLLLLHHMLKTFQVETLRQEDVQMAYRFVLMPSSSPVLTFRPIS
Put plainly: aldosterone synthase inhibitory activity in vitro (rat adrenal glomerulosa homogenate, conversion of [3H]corticosterone). In kind it is biochemical. The conditions noted are these: read-out: inhibit the aldosterone synthase activity with an IC50 value. From the text:
The aldosterone synthase inhibitory activity in vitro may be determined as follows:
Adult male Sprague-Dawley rats weighing 125-150 g are obtained from Harlan Farms. All animals are caged in pairs and maintained under standard conditions of light and temperature. The animals are placed on a sodium depleted diet (0.01-0.02%) from Harland Teklad, Madison Wis. (cat# TD90228) and maintained on normal drinking water ad libitum. The animals are maintained on this diet for two to four weeks prior to harvesting the adrenal glomerulosa cells. The rats are killed by CO2 inhalation, and the adrenals are immediately removed and placed in the same ice-cold buffer used during homogenization and assay of the enzyme preparation. The adrenals are decapsulated to obtain the glomerulosa tissue. The tissue is homogenized in a glass homogenizer containing Tris assay buffer (8.5 mM MgCl2, 2.7 mM CaCl2, 3.13 mM KCl, 7.59 mM NaCl, 0.1% TEA and 50 mM Tris HCl adjusted to pH 7.4). The homogenate is diluted so that 37.5 mg of glomerulosa tissue is in each mL of buffer. […] The plates are scanned for radioactivity with a Bioscan System 200 Imaging Scanner (Bioscan, Ish. DC). The two products of the aldosterone synthase, 18-OH-corticosterone and aldosterone are scraped and counted in a liquid scintillation counter (Beckman LS6000TA, Beckman Instr., Palo Alto, Calif.).
The IC50s are determined from a logit-log plot (pseudo-Hill plot) according to the equation (see Pratt and Taylor, Eds, “Principles of Drug Action”, Churchill Livingstone Inc, NY (1990)): log P/(100−P)=n log[I][…] where P is the percent competition of specific binding in the presence of a given concentration of inhibitor (I). The slope (Hill Coefficient) and x intercept (IC50) are determined by linear regression of the experimental data. The Km(app) is calculated by a computer program according to the Hanes equation (see Cornish-Bowden, Ed., “Principles of Enzyme Kinetics”, Butterworth & Co., Boston, Mass. (1976)): s/v=Km/V+s/V where Km=Michaelis constant, V=maximum velocity, s=substrate concentration, v=velocity.
As for `N#Cc1ccc(C2C(=O)N(Cc3ccccc3)Cc3cncn32)cc1` (centres unmarked) [Example 3, 4-(7-Benzyl-6-oxo-5,6,7,8-tetrahydro-imidazo[1,5-a]pyrazin-5-yl)-benzonitrile], the IC50 was roughly 4 nM. As to `N#Cc1ccc(C2C(=O)N(CC3CC3)Cc3cncn32)cc1` (centres unmarked) [Example 1, 4-(7-Cyclopropylmethyl-6-oxo-5,6,7,8-tetrahydro-imidazo[1,5-a]pyrazin-5-yl)-benzonitrile], the IC50 was roughly 12 nM.

Test system in another data set: not given
Assay: not given
Settings: not given
Regarding `N#Cc1ccc(C2C(=O)N(Cc3ccccc3)Cc3cncn32)cc1` (centres unmarked) [Example 3, 4-(7-Benzyl-6-oxo-5,6,7,8-tetrahydro-imidazo[1,5-a]pyrazin-5-yl)-benzonitrile], the melting point lay in the range of 163 to 165 °C. On to `Cc1ccc(CN2Cc3cncn3C(c3cccc(Br)c3)C2=O)cc1.Cl` (centres unmarked), for which the melting point fell in the range of 265 to 267 °C.

`C[C@@H](c1ccc(F)cc1)N1Cc2cncn2C(C)(c2ccc(C#N)cc2)C1=O` (some centres unmarked) [Example 86, 4(7-[(s)-1-(4-Fluoro-phenyl)-ethyl]-5-methyl-6-oxo-5,6,7,8-tetrahydro-imidazo[1,5-a]pyrazin-5-yl]-benzonitrile] showed a melting point of 78 to 82 °C. `COc1ccc(CN2Cc3cncn3C(c3cccc(C#N)c3)C2=O)cc1.Cl` (centres unmarked) returned a melting point of 246 to 248 °C. The same measure, in the same setting: the value for `N#Cc1cccc(C2C(=O)N(Cc3ccccc3)Cc3cncn32)c1` (centres unmarked) [Example 66] was 163 to 165 °C; that for `N#Cc1ccc(C2C(=O)N(Cc3ccc(F)cc3)Cc3cncn32)cc1` (centres unmarked) [Example 14, 4-[6-Oxo-7-(4-fluoro-benzyl)-5,6,7,8-tetrahydro-imidazo[1,5-a]pyrazin-5-yl]-benzonitrile] was 132 to 135 °C; that for `C[C@@H](c1ccccc1)N1Cc2cncn2C(c2ccc(C#N)cc2)C1=O` (single isomer, unassigned; (-)) [Example 62] was 157 to 158 °C. On the same count and under the same terms, in the case of `CN1Cc2cncn2C(c2cccc(Br)c2)C1=O.Cl` (centres unmarked) it was 265 °C (dec.); in that of `Cl.Cl.N#Cc1ccc(C2C(=O)N(CCCN3CCOCC3)Cc3cncn32)cc1` (centres unmarked), 246 to 248 °C; in that of `O=C1C(c2cccc(Br)c2)n2cncc2CN1Cc1cccnc1` (centres unmarked) [Example 52, 5-(3-Bromo-phenyl)-7-pyridin-3-ylmethyl-7,8-dihydro-imidazo[1,5-a]pyrazin-6-one], 50 to 54 °C. Still for that read-out and setting: the value for `Cl.N#Cc1ccc(C2C(=O)N(Cc3ccc(C(F)(F)F)cc3)Cc3cncn32)cc1` (centres unmarked) was 234 to 236 °C; that for `Cl.O=C1Cn2cncc2CN1Cc1ccccc1` was 201 to 204 °C; that for `N#Cc1ccc(C2(Cc3ccccc3)C(=O)N(CC3CC3)Cc3cncn32)cc1` (centres unmarked) [Example 89, 4-(5-Benzyl-7-cyclopropylmethyl-6-oxo-5,6,7,8-tetrahydro-imidazo[1,5-a]pyrazin-5-yl)-benzonitrile] was 156 to 158 °C. `N#Cc1ccc(C2C(=O)N(CC3CC3)Cc3cncn32)cc1` (centres unmarked) [Example 1, 4-(7-Cyclopropylmethyl-6-oxo-5,6,7,8-tetrahydro-imidazo[1,5-a]pyrazin-5-yl)-benzonitrile] registered a melting point of 146 to 147 °C.

In turn, `Cl.O=C1C(c2ccc(Br)cc2)n2cncc2CN1Cc1ccc(Cl)cc1` (centres unmarked) yielded a melting point of 158 to 159 °C. Still for that read-out and setting: in the case of `N#Cc1ccc(C2CC(=O)N(CC3CC3)Cc3cncn32)cc1` (centres unmarked) [Example 93, 4-(8-Cyclopropylmethyl-7-oxo-6,7,8,9-tetrahydro-5H-imidazo[1,5-a][1,4]diazepin-5-yl)-benzonitrile] it was 178 to 180 °C; in that of `Cl.N#Cc1cccc(C2C(=O)N(CCc3ccc(F)cc3)Cc3cncn32)c1` (centres unmarked), 221 to 223 °C; in that of `Cl.O=C1C(c2cccc(Br)c2)n2cncc2CN1Cc1cccs1` (centres unmarked), 233 to 235 °C. Same read-out and setting: the value for `O=C1C(c2cccc(Br)c2)n2cncc2CN1Cc1ccsc1` (centres unmarked) [Example 50, 5-(3-Bromo-phenyl)-7-thiophen-3-ylmethyl-7,8-dihydro-imidazo[1,5-a]pyrazin-6-one] was 43 to 45 °C; that for `Cl.O=C1C(c2ccc(Br)cc2)n2cncc2CN1Cc1ccc(F)cc1` (centres unmarked) was 205 to 207 °C; that for `C[C@H](c1ccccc1)N1Cc2cncn2C(c2ccc(Br)cc2)C1=O` (single isomer, unassigned; (+)) [Example 60] was 147 to 148 °C. Turning to `COC(=O)c1ccc(C2C(=O)N(Cc3ccccc3)Cc3cncn32)cc1.Cl` (centres unmarked), the melting point was in the range of 236 to 238 °C. For the compound `Cc1ccc(CN2Cc3cncn3C(c3ccc(C#N)cc3)C2=O)cc1` (centres unmarked) [Example 10, 4-[7-(4-Methyl-benzyl)-6-oxo-5,6,7,8-tetrahydro-imidazo[1,5-a]pyrazin-5-yl)-benzonitrile], the melting point lay within 168 to 170 °C. On the same count and under the same terms, the value for `CC(C)N1Cc2cncn2C(c2ccc(C#N)cc2)C1=O` (centres unmarked) [Example 6, 4-(7-Isopropyl-6-oxo-5,6,7,8-tetrahydro-imidazo[1,5-a]pyrazin-5-yl)-benzonitrile] was 122 to 124 °C; that for `O=C1C(c2cccc(Br)c2)n2cncc2CN1Cc1ccncc1` (centres unmarked) [Example 54, 5-(3-Bromo-phenyl)-7-pyridin-4-ylmethyl-7,8-dihydro-imidazo[1,5-a]pyrazin-6-one] was 50 to 54 °C. On the same count and under the same terms, the value for `Cl.O=C1C(c2cccc(-c3ccccc3)c2)n2cncc2CN1Cc1ccccc1` (centres unmarked) was 232 to 234 °C; that for `Cl.O=C1C(c2ccccc2)n2cncc2CN1Cc1ccccc1` (centres unmarked) was 249 to 251 °C; that for `Cl.O=C1C(c2cccc(Br)c2)n2cncc2CN1Cc1cccc(F)c1` (centres unmarked) was 240 to 243 °C. On the same count and under the same terms, in the case of `Cl.O=C1C(c2ccc(Br)cc2)n2cncc2CN1CCc1ccc(F)cc1` (centres unmarked) it was 136 to 138 °C. Compound `N#Cc1ccc(C2C(=O)N(Cc3ccc(Cl)c(Cl)c3)Cc3cncn32)cc1` (centres unmarked) [Example 16] returned a melting point of 175 to 176 °C. On the same count and under the same terms, the value for `COc1ccc(CN2Cc3cncn3C(c3ccc(Br)cc3)C2=O)cc1` (centres unmarked) [Example 21, 5-(4-Bromo-phenyl)-7-(4-methoxy-benzyl)-7,8-dihydro-imidazo[1,5-a]pyrazin-6-one] was 123 to 124 °C; that for `Cl.O=C1C(c2ccc(-c3ccsc3)cc2)n2cncc2CN1CC1CC1` (centres unmarked) was 217 to 219 °C. On the same count and under the same terms, in the case of `Cc1cccc(CN2Cc3cncn3C(c3ccc(C#N)cc3)C2=O)c1.Cl` (centres unmarked) it was 275 to 277 °C; in that of `COc1ccc(CN2Cc3cncn3C(c3ccc(-c4ccc(Cl)cc4)cc3)C2=O)cc1.Cl` (centres unmarked), 270 to 273 °C. In turn, `Cl.O=C1C(c2cccc(Br)c2)n2cncc2CN1Cc1cccc(C(F)(F)F)c1` (centres unmarked) came in with a melting point of 246 to 248 °C.

`Cl.O=C1C(c2cccc(-c3ccc(F)cc3)c2)n2cncc2CN1Cc1ccccc1` (centres unmarked): the melting point lay within 235 to 237 °C. `COc1ccc(CN2Cc3cncn3C(c3ccc(-c4ccsc4)cc3)C2=O)cc1` (centres unmarked) [Example 75, 7-(4-Methoxy-benzyl)-5-(4-thiophen3-yl-phenyl)-7,8-dihydro-imidazo[1,5-a]pyrazin-6-one] returned a melting point of 162 to 164 °C.

In turn, `C[C@@H](c1ccccc1)N1Cc2cncn2C(c2ccc(Br)cc2)C1=O` (single isomer, unassigned; (-)) [Example 61] registered a melting point of 167 to 168 °C. On the same count and under the same terms, in the case of `CC1(c2ccc(Br)cc2)C(=O)N(CC2CC2)Cc2cncn21.Cl` (centres unmarked) it was 228 to 230 °C.
